Test [1] concerns CLK1. The settings on record: human protein kinase; ref 17 (SM08502), 19 (T3), 20-21 (CX-4945), 24 (DB18); cited from earlier work.
The test system of test [2] is CLK2. Conditions: human protein kinase; ref 17 (SM08502), 19 (T3), 20-21 (CX-4945), 24 (DB18); cited from earlier work.
The subject of test [3] is CLK3. The settings on record: human protein kinase; ref 17 (SM08502), 19 (T3), 20-21 (CX-4945), 24 (DB18); cited from earlier work.
Test [4] deals with CLK4. Conditions: human protein kinase; ref 17 (SM08502), 20-21 (CX-4945), 24 (DB18); cited from earlier work.
Test [5] relates to DYRK1A. Conditions: human protein kinase; ref 17 (SM08502), 19 (T3), 20-21 (CX-4945), 24 (DB18); cited from earlier work.
The target in a further test is Hs_CDK5/p25 (Homo sapiens, UniProt Q00535). Kind of test: primary screening, short panel of mammalian kinases. It counts as biochemical. The settings on record: ATP 10 µM, means, n = 2, read-out: Residual kinase activity Hs_CDK5/p25. An excerpt:
(§1) Our molecules have been submitted first to a primary screening against a panel of eight disease-related kinases: five members of the CMGC (for CDK, MAPK, GSK3, and CLK) group (CDK5/p25, CDK9/CyclinT, GSK3β, CLK1 and DYRK1A), one CAMK (calmodulin/calcium regulated kinase PIM1), one CK1 (the casein kinase CK1ε), and haspin as a […] kinase.
(§2) Figure 4 Primary evaluation of the inhibition of the new quinazolines against a short panel of mammalian kinases. Residual kinase activities are expressed in % of maximal activity, i.e., measured in the absence of inhibitor but with an equivalent dose of DMSO (solvent of the tested compounds). ATP concentration used in the kinase assays was 10 µM (values are means, n = 2). Kinases are from human origin (Homo sapiens) except CLK1 (from Mus musculus) and DYRK1A (from Rattus norvegicus). […]

The next test addresses Hs_CDK9/CyclinT (Homo sapiens, UniProt P50750). The description is as above. It counts as biochemical. The settings on record: ATP 10 µM, means, n = 2, read-out: Residual kinase activity Hs_CDK9/CyclinT.
Description: as §1, §2

Another test concerns the target Hs_CK1ε (Homo sapiens, UniProt P49674). The test is described as above. Format: biochemical. Conditions: ATP 10 µM, means, n = 2, read-out: Residual kinase activity Hs_CK1ε.
Description: as §1, §2

The next test deals with Hs_GSK3β (Homo sapiens, UniProt P49841). The description is as above. Format: biochemical. The settings on record: ATP 10 µM, means, n = 2, read-out: Residual kinase activity Hs_GSK3β.
Chain of Hs_GSK3β (P49841 whole entry): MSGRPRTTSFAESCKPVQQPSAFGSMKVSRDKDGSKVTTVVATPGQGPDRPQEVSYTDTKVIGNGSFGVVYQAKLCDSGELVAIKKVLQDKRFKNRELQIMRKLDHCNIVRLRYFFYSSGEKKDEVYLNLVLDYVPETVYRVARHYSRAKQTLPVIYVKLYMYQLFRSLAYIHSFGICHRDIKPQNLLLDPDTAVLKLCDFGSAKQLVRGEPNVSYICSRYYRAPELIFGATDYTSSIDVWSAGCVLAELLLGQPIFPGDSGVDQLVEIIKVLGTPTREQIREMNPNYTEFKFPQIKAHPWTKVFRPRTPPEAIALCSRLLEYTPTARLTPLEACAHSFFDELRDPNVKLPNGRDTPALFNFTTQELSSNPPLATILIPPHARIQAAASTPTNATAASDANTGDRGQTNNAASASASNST
Description: as §1, §2

The target of the next test is T1, Hs_HASPIN (Homo sapiens, UniProt Q8TF76).
T1 sequence (Q8TF76 1-798): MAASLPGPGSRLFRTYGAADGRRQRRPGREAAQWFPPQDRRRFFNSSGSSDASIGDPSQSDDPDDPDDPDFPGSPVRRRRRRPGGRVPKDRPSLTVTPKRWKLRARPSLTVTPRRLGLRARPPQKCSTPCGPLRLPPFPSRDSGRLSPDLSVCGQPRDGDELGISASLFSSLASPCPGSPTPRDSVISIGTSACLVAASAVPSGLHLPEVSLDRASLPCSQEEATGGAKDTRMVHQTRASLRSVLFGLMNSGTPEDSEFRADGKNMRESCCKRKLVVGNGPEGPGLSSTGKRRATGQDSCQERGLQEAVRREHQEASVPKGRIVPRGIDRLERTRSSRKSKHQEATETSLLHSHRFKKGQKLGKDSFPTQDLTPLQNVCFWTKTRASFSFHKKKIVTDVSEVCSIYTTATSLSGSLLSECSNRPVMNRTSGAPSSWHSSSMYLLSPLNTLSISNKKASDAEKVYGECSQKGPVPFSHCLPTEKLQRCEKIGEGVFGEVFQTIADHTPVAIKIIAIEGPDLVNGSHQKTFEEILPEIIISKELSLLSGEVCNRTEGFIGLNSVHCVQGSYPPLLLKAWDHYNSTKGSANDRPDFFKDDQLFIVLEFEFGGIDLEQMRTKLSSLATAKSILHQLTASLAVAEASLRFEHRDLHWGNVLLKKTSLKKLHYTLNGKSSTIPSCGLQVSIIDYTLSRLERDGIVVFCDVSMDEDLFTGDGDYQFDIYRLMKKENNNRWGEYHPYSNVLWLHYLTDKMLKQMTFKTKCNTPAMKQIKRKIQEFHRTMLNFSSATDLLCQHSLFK
Described as above. Format: biochemical. Conditions: ATP 10 µM, means, n = 2, read-out: Residual kinase activity Hs_HASPIN.
Description: as §1, §2

The target in a further test is Hs_PIM1 (Homo sapiens, UniProt P11309). The test is described as above. Format: biochemical. Conditions: ATP 10 µM, means, n = 2, read-out: Residual kinase activity Hs_PIM1.
Chain of Hs_PIM1 (P11309 whole entry): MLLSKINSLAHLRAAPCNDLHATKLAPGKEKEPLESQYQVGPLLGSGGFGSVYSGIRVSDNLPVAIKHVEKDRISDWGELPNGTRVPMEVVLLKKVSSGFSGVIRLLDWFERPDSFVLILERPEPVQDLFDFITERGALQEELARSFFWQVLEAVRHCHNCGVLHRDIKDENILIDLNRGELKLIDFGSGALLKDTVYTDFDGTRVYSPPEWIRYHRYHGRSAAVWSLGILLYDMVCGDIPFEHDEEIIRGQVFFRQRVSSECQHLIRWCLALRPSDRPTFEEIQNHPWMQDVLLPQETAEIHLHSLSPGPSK
Description: as §1, §2

Test [6] has as its target T2, Mm_CLK1 (Mus musculus, UniProt P22518). The test is described as above. It counts as biochemical.
Description: as §1, §2

In test [7] the target is T3, Rn_DYRK1A (Rattus norvegicus, UniProt Q63470). Described as above. It counts as biochemical. Conditions: ATP 10 µM, means, n = 2, read-out: Residual kinase activity Rn_DYRK1A.
Description: as §1, §2

The target in test [8] is T2, Mm_CLK1. Description: radiometric γ33P-ATP kinase assay (Eurofins). It counts as biochemical. As for the experimental part: (§3) The results are reported in Table 2 and in Supporting Information File 1.
(§4) 2- Kinase inhibition studies
(§5) Kinase enzymatic activities were assayed using both luminescent ADP detection assay
(§6) (ADP-GloTM assay kit, Promega, Madison, WI) or radiometric kinase assay. These
(§7) assays were performed using the protocols described in our previous publication. […]
(§8) 1.Brahmaiah, D.; Kanaka Durga Bhavani, A.; Aparna, P.; Sampath Kumar, N.; Solhi,
(§9) H.; Le Guevel, R.; Baratte, B.; Ruchaud, S.; Bach, S.; Singh Jadav, S.; Raji Reddy, C.;
(§10) Roisnel, T.; Mosset, P.; Levoin, N.; Grée, R. Bioorg.
(§11) R.; Baratte, B.; Robert, T.; Ruchaud, S.; Bach, S.; Jadav, S. S.; Reddy, C. […]

The next test addresses Mm_CLK2 (Mus musculus, UniProt O35491). Description: radiometric γ33P-ATP kinase assay (Eurofins). Format: biochemical. As for the experimental part: as §3, §4, §5, §6, §7, §8, §9, §10, §11
The target of test [9] is T4, Mm_CLK4 (Mus musculus, UniProt O35493). Description: radiometric γ33P-ATP kinase assay (Eurofins). It counts as biochemical. As for the experimental part: as §3, §4, §5, §6, §7, §8, §9, §10, §11
T4 sequence (O35493 whole entry): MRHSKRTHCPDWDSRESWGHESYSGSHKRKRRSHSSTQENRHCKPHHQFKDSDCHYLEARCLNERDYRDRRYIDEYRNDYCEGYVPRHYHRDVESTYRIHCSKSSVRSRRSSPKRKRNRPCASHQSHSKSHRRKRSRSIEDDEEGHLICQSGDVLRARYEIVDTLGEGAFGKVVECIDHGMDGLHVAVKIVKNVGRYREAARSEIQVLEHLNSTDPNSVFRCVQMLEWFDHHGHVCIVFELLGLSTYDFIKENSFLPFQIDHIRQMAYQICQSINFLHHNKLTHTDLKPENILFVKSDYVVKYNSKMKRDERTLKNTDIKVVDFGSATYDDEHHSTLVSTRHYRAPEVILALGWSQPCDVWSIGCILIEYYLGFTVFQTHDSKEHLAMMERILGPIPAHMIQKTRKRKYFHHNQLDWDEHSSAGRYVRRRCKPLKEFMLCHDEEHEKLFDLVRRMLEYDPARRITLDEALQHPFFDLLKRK
Another test addresses Mm_CLK3 (Mus musculus, UniProt O35492). Kind of test: radiometric γ33P-ATP kinase assay (Eurofins). It counts as biochemical. The settings on record: 15 µM ATP; dose-response, points in duplicate. As for the experimental part: as §3, §4, §5, §6, §7, §8, §9, §10
R.; Baratte, B.; Robert, T.; Ruchaud, S.; Bach, S.; Jadav, S. S.; Reddy, C. R.; Mosset,
P.; Gouault, N.; Levoin, N.; Grée, R. Molecules 2022, 27, 6149. […]

The subject of test [10] is DYRK1B. Also noted: method as in earlier work. The settings on record: human protein kinase; ref 17 (SM08502), 19 (T3); cited from earlier work.
In test [11] the target is CLK1. Also noted: method as in PMID 29769258. The settings on record: human protein kinase; cited from earlier work.
Test [12] deals with CLK2. Also noted: method as in PMID 29769258. Conditions: human protein kinase; cited from earlier work.
The target in test [13] is CLK3. Also noted: method as in PMID 29769258. The settings on record: human protein kinase; cited from earlier work.
Test [14] deals with CLK4. The arrangement: method as in PMID 29769258. Conditions: human protein kinase; cited from earlier work.
For test [15], the target named is DYRK1A. The arrangement: method as in PMID 29769258. Conditions: human protein kinase; cited from earlier work.
Test [16] has as its target DYRK1B. Also noted: method as in PMID 29769258. Conditions: human protein kinase; cited from earlier work.
Test [17] addresses DYRK2. Also noted: method as in PMID 29769258. The settings on record: human protein kinase; cited from earlier work.
In test [18] the target is T4, Mm_CLK4. Conditions: data taken from ref 23-24; cited from earlier work.
For test [19], the target named is T3, Rn_DYRK1A. The settings on record: data taken from ref 23-24; cited from earlier work.
Test [20] concerns DYRK2. The arrangement: method as in PMID 31560935. The settings on record: human protein kinase; cited from earlier work.
The mark [21] stands for this setting: 15 µM ATP, dose-response, points in duplicate.

Like-named read-outs stand apart in the source and are kept apart here. A value given as a limit tells only on which side of the number the result lay.

In general, IC50 refers to the concentration needed to halve the response being measured. The term Kd denotes the equilibrium constant for the complex coming apart.

T2 sequence (P22518 whole entry): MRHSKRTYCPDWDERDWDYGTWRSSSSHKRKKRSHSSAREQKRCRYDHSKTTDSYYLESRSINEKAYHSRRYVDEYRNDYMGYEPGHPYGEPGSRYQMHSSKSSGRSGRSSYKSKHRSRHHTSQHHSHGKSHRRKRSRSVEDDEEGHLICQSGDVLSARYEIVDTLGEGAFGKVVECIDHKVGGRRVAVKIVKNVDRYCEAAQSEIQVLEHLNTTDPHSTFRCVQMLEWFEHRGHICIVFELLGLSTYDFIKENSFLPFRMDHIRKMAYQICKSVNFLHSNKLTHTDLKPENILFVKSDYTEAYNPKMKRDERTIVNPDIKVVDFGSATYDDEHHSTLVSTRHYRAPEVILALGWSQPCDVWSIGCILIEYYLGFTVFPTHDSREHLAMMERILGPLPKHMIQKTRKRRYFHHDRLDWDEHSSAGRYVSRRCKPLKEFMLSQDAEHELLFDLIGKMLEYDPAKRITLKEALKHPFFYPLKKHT
Chain of Hs_CDK5/p25 (Q00535 whole entry): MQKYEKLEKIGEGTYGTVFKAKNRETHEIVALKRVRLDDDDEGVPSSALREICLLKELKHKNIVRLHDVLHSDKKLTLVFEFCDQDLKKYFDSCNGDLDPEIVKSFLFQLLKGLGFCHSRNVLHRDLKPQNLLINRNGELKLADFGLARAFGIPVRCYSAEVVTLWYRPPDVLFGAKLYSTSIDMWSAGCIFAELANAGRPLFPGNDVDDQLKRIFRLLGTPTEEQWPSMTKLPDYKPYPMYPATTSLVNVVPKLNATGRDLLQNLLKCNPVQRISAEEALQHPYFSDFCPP
Chain of Hs_CDK5/p25 (Q15078 99-307 partner limits assumed): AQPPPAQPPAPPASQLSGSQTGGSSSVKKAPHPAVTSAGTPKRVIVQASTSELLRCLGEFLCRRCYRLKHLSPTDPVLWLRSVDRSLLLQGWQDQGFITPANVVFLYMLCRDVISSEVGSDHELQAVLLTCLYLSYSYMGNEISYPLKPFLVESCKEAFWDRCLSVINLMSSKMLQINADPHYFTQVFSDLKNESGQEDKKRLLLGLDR
Chain of Hs_CDK9/CyclinT (P50750 whole entry): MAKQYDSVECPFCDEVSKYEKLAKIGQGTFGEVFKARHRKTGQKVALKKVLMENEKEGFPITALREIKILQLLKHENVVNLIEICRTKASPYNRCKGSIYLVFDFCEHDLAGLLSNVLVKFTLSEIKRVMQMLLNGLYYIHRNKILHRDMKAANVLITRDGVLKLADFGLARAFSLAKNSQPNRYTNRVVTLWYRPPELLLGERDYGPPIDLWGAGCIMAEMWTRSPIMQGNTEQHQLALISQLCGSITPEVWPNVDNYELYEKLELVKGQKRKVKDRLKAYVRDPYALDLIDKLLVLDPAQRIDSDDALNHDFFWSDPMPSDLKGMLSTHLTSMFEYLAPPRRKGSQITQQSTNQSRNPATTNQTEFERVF
Chain of Hs_CDK9/CyclinT (O60563 whole entry partner): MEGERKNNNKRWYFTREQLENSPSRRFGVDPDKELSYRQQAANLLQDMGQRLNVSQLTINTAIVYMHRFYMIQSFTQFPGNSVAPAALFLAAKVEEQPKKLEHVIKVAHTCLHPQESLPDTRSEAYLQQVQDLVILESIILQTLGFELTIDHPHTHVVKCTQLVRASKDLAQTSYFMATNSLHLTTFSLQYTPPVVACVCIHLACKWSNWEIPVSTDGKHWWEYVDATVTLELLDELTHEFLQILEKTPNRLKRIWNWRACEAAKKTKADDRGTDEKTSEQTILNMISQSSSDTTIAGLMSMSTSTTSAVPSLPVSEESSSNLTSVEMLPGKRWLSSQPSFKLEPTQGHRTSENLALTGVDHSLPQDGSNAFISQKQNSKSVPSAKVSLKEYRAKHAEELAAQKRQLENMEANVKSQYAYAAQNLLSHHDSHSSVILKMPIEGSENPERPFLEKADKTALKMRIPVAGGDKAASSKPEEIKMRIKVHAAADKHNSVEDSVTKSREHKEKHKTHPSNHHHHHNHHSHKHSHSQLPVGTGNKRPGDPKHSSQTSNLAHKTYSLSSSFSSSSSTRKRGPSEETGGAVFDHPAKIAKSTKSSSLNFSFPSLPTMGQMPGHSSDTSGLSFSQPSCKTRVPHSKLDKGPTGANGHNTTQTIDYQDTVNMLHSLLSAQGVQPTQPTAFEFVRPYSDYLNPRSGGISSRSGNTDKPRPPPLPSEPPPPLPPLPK
Chain of Hs_CK1ε (P49674 whole entry): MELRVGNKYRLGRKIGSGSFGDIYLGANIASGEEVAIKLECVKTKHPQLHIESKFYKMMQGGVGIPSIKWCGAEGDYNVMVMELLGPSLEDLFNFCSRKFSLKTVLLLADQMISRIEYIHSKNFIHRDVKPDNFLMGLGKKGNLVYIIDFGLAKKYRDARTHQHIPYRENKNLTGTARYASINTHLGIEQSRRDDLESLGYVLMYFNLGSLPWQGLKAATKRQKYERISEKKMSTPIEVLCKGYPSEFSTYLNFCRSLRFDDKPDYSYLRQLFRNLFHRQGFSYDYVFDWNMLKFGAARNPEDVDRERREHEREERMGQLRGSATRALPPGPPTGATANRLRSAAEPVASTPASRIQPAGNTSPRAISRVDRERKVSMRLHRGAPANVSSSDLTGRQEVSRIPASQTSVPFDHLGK
Chain of Mm_CLK2 (O35491 whole entry): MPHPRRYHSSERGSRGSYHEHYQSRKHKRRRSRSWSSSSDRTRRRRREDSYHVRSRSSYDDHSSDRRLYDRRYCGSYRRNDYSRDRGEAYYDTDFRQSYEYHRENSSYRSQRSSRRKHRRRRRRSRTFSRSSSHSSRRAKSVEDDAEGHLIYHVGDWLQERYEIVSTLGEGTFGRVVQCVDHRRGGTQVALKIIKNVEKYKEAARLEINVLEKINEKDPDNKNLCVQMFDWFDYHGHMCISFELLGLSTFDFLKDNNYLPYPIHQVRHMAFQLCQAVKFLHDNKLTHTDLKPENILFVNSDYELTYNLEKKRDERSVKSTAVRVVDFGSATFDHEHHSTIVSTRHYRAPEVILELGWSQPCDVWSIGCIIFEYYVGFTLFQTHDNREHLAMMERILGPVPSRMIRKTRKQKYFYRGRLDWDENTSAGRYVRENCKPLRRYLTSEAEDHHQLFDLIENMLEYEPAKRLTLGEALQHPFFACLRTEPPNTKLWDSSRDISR
Chain of Mm_CLK3 (O35492 whole entry): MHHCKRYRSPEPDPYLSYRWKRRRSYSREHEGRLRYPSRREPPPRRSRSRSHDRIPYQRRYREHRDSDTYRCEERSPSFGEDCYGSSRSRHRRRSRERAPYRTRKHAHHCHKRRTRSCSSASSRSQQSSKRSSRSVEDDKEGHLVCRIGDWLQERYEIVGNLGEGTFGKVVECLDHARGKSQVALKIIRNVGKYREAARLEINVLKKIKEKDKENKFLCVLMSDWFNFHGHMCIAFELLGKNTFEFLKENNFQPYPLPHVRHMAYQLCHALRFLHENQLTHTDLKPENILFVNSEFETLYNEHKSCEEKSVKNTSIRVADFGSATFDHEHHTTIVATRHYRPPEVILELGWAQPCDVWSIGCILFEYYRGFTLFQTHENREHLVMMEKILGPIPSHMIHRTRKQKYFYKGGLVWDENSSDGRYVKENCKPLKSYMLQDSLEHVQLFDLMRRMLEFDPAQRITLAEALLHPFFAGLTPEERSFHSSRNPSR

On to `O=C(O)c1ccc2c(c1)nc(Nc1cccc(Cl)c1)c1ccncc12` [CX-4945], for which the IC50 in the test on CLK1 [1] was 3.3 nM; in the test with CLK2 [2], 2.9 nM; in the test with CLK3 [3], 67 nM; in the test on CLK4 [4] it was 23 nM; with DYRK1A [5], […].
For `Cc1ccc(-n2cc(COc3cccc4cnc(Nc5cccc(-c6cccc(C(=O)O)c6)c5)nc34)nn2)c([N+](=O)[O-])c1` [Compound 13a], the remaining activity at 1 µM on Hs_CDK5/p25 (compound 1 μM) is 62%; at Hs_CDK9/CyclinT (compound 1 μM) it was 83%; at Hs_CK1ε (compound 1 μM), at least 100%; at Hs_GSK3β (compound 1 μM) it was 95%; on Hs_HASPIN (compound 1 μM), 79%; on Hs_PIM1 (compound 1 μM), 68%. Also, the remaining activity at 1 µM at Mm_CLK1 [6] (compound 1 μM, ATP 10 µM, means, n = 2, read-out: Residual kinase activity Mm_CLK1) worked out at 44%; on Rn_DYRK1A [7] (compound 1 μM), 92%. Also, the remaining activity at 10 µM on Hs_CDK5/p25 (compound 10 μM) is 9%; on Hs_CDK9/CyclinT (compound 10 μM), 24%; on Hs_CK1ε (compound 10 μM) it was at least 100%; at Hs_GSK3β (compound 10 μM), 26%; on Hs_HASPIN (compound 10 μM), 63%; at Hs_PIM1 (compound 10 μM) it was at least 100%. For the same molecule, the remaining activity at 10 µM on Mm_CLK1 [6] (compound 10 μM, ATP 10 µM, means, n = 2, read-out: Residual kinase activity Mm_CLK1) is 5%; at Rn_DYRK1A [7] (compound 10 μM), 60%. Besides, on Mm_CLK1 [6] (1 and 10 µM), the “activity against CLK1 in primary screening” value is on record as “significant activity against CLK1”. Further, the IC50 against Mm_CLK1 [8] (setting [21]) came to 680 nM; against Mm_CLK2 (setting [21]), 278 nM; against Mm_CLK4 [9] (setting [21]) it was 428 nM; at Mm_CLK3, 1660 nM. On Mm_CLK1 [8] (ratio of IC50 values), the Mm_CLK3/Mm_CLK1 was found to be 2.43. Besides, the Mm_CLK3/Mm_CLK2 at Mm_CLK2 (ratio of IC50 values) is 5.95. Besides, the Mm_CLK3/Mm_CLK4 at Mm_CLK4 [9] (ratio of IC50 values) worked out at 3.87.
With `CN1CCN(C(=O)C(C)(C)c2ccc(C(=O)Nc3cn4cc(-c5ccncc5)ccc4n3)cc2)CC1` [Compound T3], the IC50 was 0.67 nM with CLK1 [1]; 15 nM with CLK2 [2]; 110 nM in the test on CLK3 [3]; 260 nM with DYRK1A [5]; 230 nM in the test on DYRK1B [10].
Turning to `CNc1nc(NCc2cnccn2)c2c(-c3ccc4ncccc4c3)c[nH]c2n1` [Compound T-025], the dissociation constant Kd was 4.8 nM on CLK1 [11]; 0.096 nM on CLK2 [12]; 6.5 nM on CLK3 [13]; 0.61 nM on CLK4 [14]; 0.074 nM on DYRK1A [15]; 1.5 nM at DYRK1B [16]. Moreover, the Kd at DYRK2 [17] was 32 nM.
For `Cc1ccc(-n2cc(COc3cccc4cnc(Nc5cccc(Cl)c5)nc34)nn2)c([N+](=O)[O-])c1` [DB18], the concentration for half-maximal inhibition (IC50) was 20 nM at Mm_CLK4 [18] and over 100000 nM on Rn_DYRK1A [19].
For `CN1CCN(c2cc(C(=O)Nc3cc4cc(-c5cnn(C)c5)ccc4cn3)ccn2)CC1` [SM08502], the IC50 in the test on CLK1 [1] was 8 nM; in the test on CLK2 [2] it was […]; in the test on CLK3 [3] it was 22 nM; in the test with CLK4 [4] it was […]; in the test with DYRK1A [5], […]; in the test with DYRK1B [10], […]. Further, the IC50 in the test on DYRK2 [20] was […].

(Values after article PMC12557437, “Research towards selective inhibition of the CLK3 kinase” (Beilstein Journal of Organic Chemistry, 2025).)
